Each structure is given as a SMILES string.

The target of the test is SARS-CoV-2 PLpro (Severe acute respiratory syndrome coronavirus 2 (2019-nCoV) (SARS-CoV-2), UniProt P0DTD1). As to the kind of experiment: PLpro enzymatic inhibition assay (IC50 value determination). The test is classed as biochemical. The following applies: 60 min preincubation for covalent inhibitors, 10 min for non-covalent, read-out: Inhibition of SARS-CoV-2 PLpro IC50 range.
`C#CCNC(=O)CNC(=O)CN(C1CCN(C(C)c2ccnc3ccccc23)CC1)S(C)(=O)=O` (centres unmarked) [Compound 85, N-(2-oxo-2-(prop-2-yn-1-ylamino)ethyl)-2-(N-(1-(1-(quinolin-4-yl)ethyl)piperidin-4-yl)methylsulfonamido)acetamide]: the half-maximal inhibitory concentration (IC50) was in the range of 100 to 1000 nM.

As to `C#CCNC(=O)CNC(=O)CN(C1CCN(C2(c3cccc4ccccc34)CC2)CC1)S(C)(=O)=O` [Compound 105, 2-(N-(1-(1-(naphthalen-1-yl)cyclopropyl)piperidin-4-yl)methylsulfonamido)-N-(2-oxo-2-(prop-2-yn-1-ylamino)ethyl)acetamide], the IC50 fell in the range of 1000 to 10000 nM. In the case of `COC(=O)/C=C/CNC(=O)CNC(=O)CN(C(=O)C(C)C)C1CCN([C@H](C)c2cccc3ccccc23)CC1` [Compound 17, methyl (R,E)-4-(2-(2-(N-(1-(1-(naphthalen-1-yl)ethyl)piperidin-4-yl)isobutyramido)acetamido)acetamido)but-2-enoate], the IC50 was 100 to 1000 nM. As to `C#CCNC(=O)CNC(=O)CN(C1CCN(C(C)c2cccc3cccnc23)CC1)S(C)(=O)=O` (centres unmarked) [Compound 82, N-(2-oxo-2-(prop-2-yn-1-ylamino)ethyl)-2-(N-(1-(1-(quinolin-8-yl)ethyl)piperidin-4-yl)methylsulfonamido)acetamide], the concentration for half-maximal inhibition (IC50) fell in the range of 100 to 1000 nM.

Regarding `COC(=O)/C=C/CNC(=O)CNC(=O)CN(C(=O)C1CC1)C1CCN([C@H](C)c2cccc3ccccc23)CC1` [Compound 5, methyl (R,E)-4-(2-(2-(N-(1-(1-(naphthalen-1-yl)ethyl)piperidin-4-yl)cyclopropanecarboxamido)acetamido)acetamido)but-2-enoate], the IC50 was less than 100 nM. With `C#CCNC(=O)CNC(=O)CN(C1CCN(C(C)c2cccc3ccccc23)CC1)S(=O)(=O)CCC(=O)OC` (centres unmarked) [Compound 131, methyl 3-(N-(1-(1-(naphthalen-1-yl)ethyl)piperidin-4-yl)-N-(2-oxo-2-((2-oxo-2-(prop-2-yn-1-ylamino)ethyl)amino)ethyl)sulfamoyl)propanoate], the half-maximal inhibitory concentration (IC50) was less than 100 nM. Under `COC(=O)/C=C/CNC(=O)CNC(=O)[C@@H](C)NC1CCN([C@H](C)c2cccc3ccccc23)CC1` [Compound 28, methyl (E)-4-(2-((R)-2-((1-((R)-1-(naphthalen-1-yl)ethyl)piperidin-4-yl)amino)propanamido)acetamido)but-2-enoate] stands 1000 to 10000 nM; under `COC(=O)/C=C/CNC(=O)CNC(=O)CN(C(=O)Cc1ccc2c(c1)OCO2)C1CCN(C(C)c2cccc3ccccc23)CC1` (centres unmarked) [Compound 1, methyl (E)-4-(2-(2-(2-(benzo[d][1,3]dioxol-5-yl)-N-(1-(1-(naphthalen-1-yl)ethyl)piperidin-4-yl)acetamido)acetamido)acetamido)but-2-enoate], 100 to 1000 nM; under `C#CCNC(=O)CNC(=O)CN(C1CCN(C(C)c2cccc(Br)c2)CC1)S(C)(=O)=O` (centres unmarked) [Compound 108, 2-(N-(1-(1-(3-bromophenyl)ethyl)piperidin-4-yl)methylsulfonamido)-N-(2-oxo-2-(prop-2-yn-1-ylamino)ethyl)acetamide], 100 to 1000 nM.

Turning to `C#CCNC(=O)CNC(=O)CN(C1CCN(C(C)c2cccc3ccccc23)CC1)S(=O)(=O)N1CCN(CC(=O)OCC)CC1` (centres unmarked) [Compound 115, ethyl 2-(4-(N-(1-(1-(naphthalen-1-yl)ethyl)piperidin-4-yl)-N-(2-oxo-2-((2-oxo-2-(prop-2-yn-1-ylamino)ethyl)amino)ethyl)sulfamoyl)piperazin-1-yl)acetate], the IC50 is less than 100 nM. Under `C#CC(=O)NNC(=O)CN(C1CCN([C@H](C)c2cccc3ccccc23)CC1)S(C)(=O)=O` [Compound 147, (R)—N-(1-(1-(naphthalen-1-yl)ethyl)piperidin-4-yl)-N-(2-oxo-2-(2-propioloylhydrazineyl)ethyl)methanesulfonamide] stands less than 100 nM; under `C#CCNC(=O)CNC(=O)CN(C1CCN([C@H](C)c2cccc3ccccc23)CC1)S(=O)(=O)N1CCC(C(=O)OC)C1` (stereo partly drawn) [Compound 134, methyl 1-(N-(1-((R)-1-(naphthalen-1-yl)ethyl)piperidin-4-yl)-N-(2-oxo-2-((2-oxo-2-(prop-2-yn-1-ylamino)ethyl)amino)ethyl)sulfamoyl)pyrrolidine-3-carboxylate], less than 100 nM; under `C#CCNC(=O)CNC(=O)CN(C1CCN(C(C)c2cccc3ccccc23)CC1)S(=O)(=O)N1CCN(CC(=O)O)CC1` (centres unmarked) [Compound 117], 1000 to 10000 nM. As to `C#CCNC(=O)CNC(=O)CN(C1CCN(C(C)c2ccccc2C(F)(F)F)CC1)S(C)(=O)=O` (centres unmarked) [Compound 102, N-(2-oxo-2-(prop-2-yn-1-ylamino)ethyl)-2-(N-(1-(1-(2-(trifluoromethyl)phenyl)ethyl)piperidin-4-yl)methylsulfonamido)acetamide], the half-inhibitory concentration (IC50) lay in the range of 100 to 1000 nM. As for `COC(=O)/C=C/CNC(=O)CNC(=O)CN(C(=O)Cc1ccccc1)C1CCN(C(C)c2cccc3ccccc23)CC1` (centres unmarked) [Compound 4, methyl (E)-4-(2-(2-(N-(1-(1-(naphthalen-1-yl)ethyl)piperidin-4-yl)-2-phenylacetamido)acetamido)acetamido)but-2-enoate], the half-inhibitory concentration (IC50) lay within 100 to 1000 nM. Take `C#CCNC(=O)CNC(=O)CN(C1CCN(C(C)c2cccc3ccccc23)CC1)S(C)(=O)=O` (centres unmarked) [Compound 97, 2-(N-(1-(1-(naphthalen-1-yl)ethyl)piperidin-4-yl)methylsulfonamido)-N-(2-oxo-2-(prop-2-yn-1-ylamino)ethyl)acetamide]: the IC50 is less than 100 nM. On to `C#CCNC(=O)CNC(=O)CN(C1CCN(C(C)c2ccc(OC)cc2Cl)CC1)S(C)(=O)=O` (centres unmarked) [Compound 139, 2-(N-(1-(1-(2-chloro-4-methoxyphenyl)ethyl)piperidin-4-yl)methylsulfonamido)-N-(2-oxo-2-(prop-2-yn-1-ylamino)ethyl)acetamide], for which the IC50 is 100 to 1000 nM. Under `COC(=O)/C=C/CNC(=O)CNC(=O)CN(C(=O)Cc1cccc(F)c1)C1CCN([C@H](C)c2cccc3ccccc23)CC1` [Compound 3, methyl (R,E)-4-(2-(2-(2-(3-fluorophenyl)-N-(1-(1-(naphthalen-1-yl)ethyl)piperidin-4-yl)acetamido)acetamido)acetamido)but-2-enoate] stands 100 to 1000 nM; under `COC(=O)/C=C/CNC(=O)CNC(=O)CN(C1CCN([C@H](C)c2cccc3ccccc23)CC1)S(N)(=O)=O` [Compound 22, methyl (R,E)-4-(2-(2-((1-(1-(naphthalen-1-yl)ethyl)piperidin-4-yl)(sulfamoyl)amino)acetamido)acetamido)but-2-enoate], less than 100 nM; under `C#CCNC(=O)CNC(=O)CN(C1CCN([C@@H](C)c2cccc3ccccc23)CC1)S(=O)(=O)N1CCCC1` [Compound 91, (S)-2-(N-(1-(1-(naphthalen-1-yl)ethyl)piperidin-4-yl)pyrrolidine-1-sulfonamido)-N-(2-oxo-2-(prop-2-yn-1-ylamino)ethyl)acetamide], less than 100 nM. In the case of `C#CCNC(=O)CNC(=O)CN(C1CCN([C@H](C)c2cccc3ccccc23)CC1)S(=O)(=O)CCCO` [Compound 135, (R)-2-((3-hydroxy-N-(1-(1-(naphthalen-1-yl)ethyl)piperidin-4-yl)propyl)sulfonamido)-N-(2-oxo-2-(prop-2-yn-1-ylamino)ethyl)acetamide], the half-inhibitory concentration (IC50) was less than 100 nM.

Consider `COC(=O)/C=C/CNC(=O)CNC(=O)CN(C(=O)C1CCC1)C1CCN([C@H](C)c2cccc3ccccc23)CC1` [Compound 7, methyl (R,E)-4-(2-(2-(N-(1-(1-(naphthalen-1-yl)ethyl)piperidin-4-yl)cyclobutanecarboxamido)acetamido)acetamido)but-2-enoate], for which the IC50 is 100 to 1000 nM. Under `COC(=O)/C=C/CNC(=O)CNC(=O)[C@H](CNC(=O)OC(C)(C)C)NC1CCN([C@H](C)c2cccc3ccccc23)CC1` [Compound 27, methyl (S,E)-2,2-dimethyl-7-((1-((R)-1-(naphthalen-1-yl)ethyl)piperidin-4-yl)amino)-4,8,11-trioxo-3-oxa-5,9,12-triazahexadec-14-en-16-oate] stands 1000 to 10000 nM. Under `COC(=O)/C=C/CNC(=O)CNC(=O)CN(C(=O)C1CCC1)C1CCN(C(C)c2cccc3ccccc23)CC1` (centres unmarked) [Compound 6, methyl (E)-4-(2-(2-(N-(1-(1-(naphthalen-1-yl)ethyl)piperidin-4-yl)cyclobutanecarboxamido)acetamido)acetamido)but-2-enoate] stands less than 100 nM; under `C#CCNC(=O)CNC(=O)CN(C1CCN(C(C)c2cccc(C)c2Cl)CC1)S(C)(=O)=O` (centres unmarked) [Compound 142, 2-(N-(1-(1-(2-chloro-3-methylphenyl)ethyl)piperidin-4-yl)methylsulfonamido)-N-(2-oxo-2-(prop-2-yn-1-ylamino)ethyl)acetamide], 100 to 1000 nM; under `C#CCNC(=O)CNC(=O)CN(C1CCN([C@@H](C)c2cccc3ccccc23)CC1)S(C)(=O)=O` [Compound 89, (S)-2-(N-(1-(1-(naphthalen-1-yl)ethyl)piperidin-4-yl)methylsulfonamido)-N-(2-oxo-2-(prop-2-yn-1-ylamino)ethyl)acetamide], less than 100 nM.

For the compound `COC(=O)/C=C/CNC(=O)CNC(=O)CN(C(=O)Cc1ccc2c(c1)OCO2)C1CCN([C@H](C)c2cccc3ccccc23)CC1` [Compound 2, methyl (R,E)-4-(2-(2-(2-(benzo[d][1,3]dioxol-5-yl)-N-(1-(1-(naphthalen-1-yl)ethyl)piperidin-4-yl)acetamido)acetamido)acetamido)but-2-enoate], the concentration for half-maximal inhibition (IC50) lay in the range of 100 to 1000 nM. For the compound `C#CCNC(=O)CNC(=O)CN(C1CCN(C(C)c2cccc3ccc(Cl)cc23)CC1)S(C)(=O)=O` (centres unmarked) [Compound 84, 2-(N-(1-(1-(7-chloronaphthalen-1-yl)ethyl)piperidin-4-yl)methylsulfonamido)-N-(2-oxo-2-(prop-2-yn-1-ylamino)ethyl)acetamide], the IC50 is less than 100 nM. Consider `C#CCNC(=O)CNC(=O)CN(C1CCN(C(C)c2ccccc2F)CC1)S(C)(=O)=O` (centres unmarked) [Compound 129, 2-(N-(1-(1-(2-fluorophenyl)ethyl)piperidin-4-yl)methylsulfonamido)-N-(2-oxo-2-(prop-2-yn-1-ylamino)ethyl)acetamide], for which the IC50 was in the range of 100 to 1000 nM.

The IC50 is the concentration that gives 50% inhibition.

(Values after patent US20250059159A1, “PLPRO INHIBITORS” (SHANGHAI SYNERGY PHARMACEUTICAL SCIENCES CO., LTD., priority 2021, published 2025).)
